Data published in paper PMC4459817, “Vasculotide reduces endothelial permeability and tumor cell extravasation in the absence of binding to or agonistic activation of Tie2” (EMBO Molecular Medicine, 2015).

B1: recombinant human Ang1 (rhAng1) (ligand, UniProt Q15389 16-498, looked up)
chain: HIGCSNQRRSPENSGRRYNRIQHGQCAYTFILPEHDGNCRESTTDQYNTNALQRDAPHVEPDFSSQKLQHLEHVMENYTQWLQKLENYIVENMKSEMAQIQQNAVQNHTATMLEIGTSLLSQTAEQTRKLTDVETQVLNQTSRLEIQLLENSLSTYKLEKQLLQQTNEILKIHEKNSLLEHKILEMEGKHKEELDTLKEEKENLQGLVTRQTYIIQELEKQLNRATTNNSVLQKQQLELMDTVHNLVNLCTKEGVLLKGGKREEEKPFRDCADVYQAGFNKSGIYTIYINNMPEPKKVFCNMDVNGGGWTVIQHREDGSLDFQRGWKEYKMGFGNPSGEYWLGNEFIFAITSQRQYMLRIELMDWEGNRAYSQYDRFHIGNEKQNYRLYLKGHTGTAGKQSSLILHGADFSTKDADNDNCMCKCALMLTGGWWFDACGPSNLNGMFYTAGQNHGKLNGIKWHYFKGPSYSLRSTTMMIRPLDF
notes: angiopoietin-1, human, recombinant; also called angiopoietin-1; source: bought: R&D Systems (named for the Boyden chamber experiments)

Tested on: human microvascular ECs of lung blood vessel origin (HMVEC-LBl)
Assay: modified Boyden chamber, thrombin-stimulated FITC-dextran permeability, HMVEC-LBl
Type: cell-based
Settings: VT 10–20 ng/mL, Ang1 200–400 ng/mL, 30 min pretreatment, FITC fluorescence ex/em 490/520 nm, n = 3–5 inserts, unpaired t-test, Fig1A
Experimental: ECs were first treated with Vasculotide (VT), PBS (vehicle/negative control), Ang1 (positive control), PEG-Cys (polyethylene glycol backbone), T7c (non-PEGylated CHHHRHSF peptides), or VT in the presence of 100-fold molar excess of T7c. The concentrations used, 10–20 ng/mL VT and 200–400 ng/mL Ang1, are estimated molar equivalents (0.71–1.43 nM). Thirty minutes later, ECs were stimulated with thrombin, 0.1% BSA (vehicle/negative control), or EDTA (positive control). Another 30mins later, the amount of FITC-dextran diffusion into the lower chambers (A, D) provides a measure of endothelial permeability. CMTPX-labeled tumor cells (TCs) were then dispensed into inserts, and the amount of TC fluorescence emitting from the underside of insert membranes after 20 h (B–C) or 28 h (E) reflects the efficiency of trans-endothelial TC migration. […] Three experiments (twice with HMVEC-LBl and once with HMVEC-DBl) were run with n = 3–5 inserts (independent biological replicates) per group and analyzed by two-sampled unpaired t-tests. […]
Endothelial cells (ECs) were grown on cell culture inserts with uncoated 8-μm-pore PET filter membranes to 100% confluency. […] After 30 min of thrombin stimulation or 4–6 h of TC-CM stimulation, FITC fluorescence (ex/em = 490/520 nm) was measured from a 50 μl sample of the lower chamber media. […]

| Molecule | transendothelial permeability of FITC-dextran |
| --- | --- |
| CHHHRHSF [Vasculotide, 4-armed maleimide-functionalized polyethylene glycol (PEG) backbone to link together four cysteine-capped T7 peptides, that is, CHHHRHSF] | counteract thrombin-stimulated increases in transendothelial permeability of FITC-dextran (P < 0.05 |
| B1 | counteract thrombin induction of trans-endothelium macromolecular permeability |
